Experimental data from patent publication US9120812B2, “Pyrimidooxazocine derivatives as mTOR-inhibitors” (SANOFI, priority 2012, dated 2015).

Experiments:
Akt-pS473 in U87MG cells = conditions: Homo sapiens, U-87 MG, read-out: U87 Akt-pS473 % Inhibition or IC50, nM (IC50), U87MG cells
PI3Kα (p110α/p85α) = PI3Kα (p110α/p85α) (Homo sapiens (Human), UniProt P42336); test: PI3Kα enzymatic test by measuring the consumption of ATP; assay type: biochemical
Outline: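 ATP consumption read out by KinaseGlo luminescence after a 90 min reaction of 1.7 μg/ml PI3Kα (p110α/p85α) with 2 μM ATP and 50 μM PIP2, buffered at pH 7.5 (Tris, 10 mM MgCl2, 1 mM EGTA, 0.03% Chaps, 1 mM DTT). Threefold dilution series over ≥10 000-fold range yield IC50.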

[1] = target: mTOR (human recombinant aa mTOR 1360-2549) (Homo sapiens (Human), UniProt P42345); test: mTOR enzymatic test by TR-FRET (phosphorylation of GFP-4EBP1); assay type: biochemical
Outline: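 After a 30 min room-temperature kinase reaction, EDTA (10 mM final) and Tb-labelled phospho-Thr46 antibody (2 nM final) were added and incubated 60 min. Energy transfer from Tb to phosphorylated GFP-4EBP1 was read at 340 nm excitation, emissions 490/520 nm. Values derive from the 520/490 fluorescence ratio.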

U87MG tumour cells = test: Test of in vitro proliferation of U87MG tumour cells; assay type: cell-based; conditions: Homo sapiens, U-87 MG, 72 h, U87MG cells, 72 hours; read-out: U87 Cell Proliferation IC50
Experimental: Model 4: Test of in vitro Proliferation of U87MG Tumour Cells.
The cell growth is determined with the reagent CellTiter 96 AQueous One Solution Cell Proliferation Assay from Promega (Cat. No. G3581).

Sequence of mTOR (human recombinant aa mTOR 1360-2549) (P42345 1360-2549): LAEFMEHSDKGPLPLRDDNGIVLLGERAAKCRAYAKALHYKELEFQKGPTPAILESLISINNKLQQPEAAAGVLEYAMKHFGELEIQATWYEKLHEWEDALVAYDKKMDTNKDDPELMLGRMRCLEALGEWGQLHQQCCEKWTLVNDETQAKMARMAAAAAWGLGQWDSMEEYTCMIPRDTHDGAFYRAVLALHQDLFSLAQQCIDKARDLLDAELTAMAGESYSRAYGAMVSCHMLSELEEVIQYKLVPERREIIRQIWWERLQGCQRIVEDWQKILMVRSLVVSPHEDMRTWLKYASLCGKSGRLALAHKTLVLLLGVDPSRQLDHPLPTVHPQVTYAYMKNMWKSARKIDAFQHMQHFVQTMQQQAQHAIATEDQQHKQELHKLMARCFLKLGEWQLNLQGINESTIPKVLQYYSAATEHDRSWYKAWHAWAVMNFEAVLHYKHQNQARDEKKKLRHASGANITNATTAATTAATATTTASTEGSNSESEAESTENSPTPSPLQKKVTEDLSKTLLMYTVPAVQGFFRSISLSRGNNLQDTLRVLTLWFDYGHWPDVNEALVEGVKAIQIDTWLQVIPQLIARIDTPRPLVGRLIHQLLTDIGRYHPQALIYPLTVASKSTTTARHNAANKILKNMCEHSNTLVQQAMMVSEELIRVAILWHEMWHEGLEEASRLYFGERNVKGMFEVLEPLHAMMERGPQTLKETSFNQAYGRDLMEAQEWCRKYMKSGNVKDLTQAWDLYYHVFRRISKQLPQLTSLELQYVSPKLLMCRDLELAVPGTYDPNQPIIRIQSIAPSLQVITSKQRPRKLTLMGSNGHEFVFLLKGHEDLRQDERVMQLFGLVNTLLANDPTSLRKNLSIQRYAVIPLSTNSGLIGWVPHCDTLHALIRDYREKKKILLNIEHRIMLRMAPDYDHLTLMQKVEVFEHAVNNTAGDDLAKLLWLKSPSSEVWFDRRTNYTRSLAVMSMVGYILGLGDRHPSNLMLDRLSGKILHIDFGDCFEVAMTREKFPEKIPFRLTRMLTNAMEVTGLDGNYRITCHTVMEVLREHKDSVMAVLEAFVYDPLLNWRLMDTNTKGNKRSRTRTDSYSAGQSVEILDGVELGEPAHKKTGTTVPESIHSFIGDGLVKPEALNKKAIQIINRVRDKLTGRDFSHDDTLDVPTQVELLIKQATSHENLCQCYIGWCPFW
Sequence of PI3Kα (p110α/p85α) (P42336 whole entry): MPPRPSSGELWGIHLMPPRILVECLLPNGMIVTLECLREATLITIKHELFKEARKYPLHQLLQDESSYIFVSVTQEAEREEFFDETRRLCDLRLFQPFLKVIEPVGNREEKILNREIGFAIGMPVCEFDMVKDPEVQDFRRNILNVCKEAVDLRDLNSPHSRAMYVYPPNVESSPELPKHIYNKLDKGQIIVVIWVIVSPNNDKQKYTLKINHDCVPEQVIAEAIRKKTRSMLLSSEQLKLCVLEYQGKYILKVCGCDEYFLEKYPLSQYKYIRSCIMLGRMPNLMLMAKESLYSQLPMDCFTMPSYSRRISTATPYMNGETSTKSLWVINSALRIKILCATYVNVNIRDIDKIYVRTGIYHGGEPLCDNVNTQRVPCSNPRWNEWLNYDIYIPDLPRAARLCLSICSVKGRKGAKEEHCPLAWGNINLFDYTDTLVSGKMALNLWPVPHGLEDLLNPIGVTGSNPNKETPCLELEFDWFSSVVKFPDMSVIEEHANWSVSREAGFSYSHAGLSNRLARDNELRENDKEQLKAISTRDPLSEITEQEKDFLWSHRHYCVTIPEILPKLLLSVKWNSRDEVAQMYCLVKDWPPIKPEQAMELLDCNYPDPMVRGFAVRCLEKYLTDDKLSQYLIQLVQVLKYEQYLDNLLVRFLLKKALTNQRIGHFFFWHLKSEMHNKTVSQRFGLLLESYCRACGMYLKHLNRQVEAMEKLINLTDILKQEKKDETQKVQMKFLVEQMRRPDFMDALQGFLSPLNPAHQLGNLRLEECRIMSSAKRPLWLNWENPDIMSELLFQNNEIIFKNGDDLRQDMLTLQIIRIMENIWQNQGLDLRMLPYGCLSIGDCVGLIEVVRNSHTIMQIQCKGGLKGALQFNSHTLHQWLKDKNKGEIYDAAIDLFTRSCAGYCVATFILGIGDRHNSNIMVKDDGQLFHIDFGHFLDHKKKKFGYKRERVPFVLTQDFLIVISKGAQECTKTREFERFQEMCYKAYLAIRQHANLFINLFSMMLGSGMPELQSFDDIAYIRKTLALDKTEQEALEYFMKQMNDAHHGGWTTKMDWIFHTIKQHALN
Sequence of PI3Kα (p110α/p85α) (P27986 whole entry partner): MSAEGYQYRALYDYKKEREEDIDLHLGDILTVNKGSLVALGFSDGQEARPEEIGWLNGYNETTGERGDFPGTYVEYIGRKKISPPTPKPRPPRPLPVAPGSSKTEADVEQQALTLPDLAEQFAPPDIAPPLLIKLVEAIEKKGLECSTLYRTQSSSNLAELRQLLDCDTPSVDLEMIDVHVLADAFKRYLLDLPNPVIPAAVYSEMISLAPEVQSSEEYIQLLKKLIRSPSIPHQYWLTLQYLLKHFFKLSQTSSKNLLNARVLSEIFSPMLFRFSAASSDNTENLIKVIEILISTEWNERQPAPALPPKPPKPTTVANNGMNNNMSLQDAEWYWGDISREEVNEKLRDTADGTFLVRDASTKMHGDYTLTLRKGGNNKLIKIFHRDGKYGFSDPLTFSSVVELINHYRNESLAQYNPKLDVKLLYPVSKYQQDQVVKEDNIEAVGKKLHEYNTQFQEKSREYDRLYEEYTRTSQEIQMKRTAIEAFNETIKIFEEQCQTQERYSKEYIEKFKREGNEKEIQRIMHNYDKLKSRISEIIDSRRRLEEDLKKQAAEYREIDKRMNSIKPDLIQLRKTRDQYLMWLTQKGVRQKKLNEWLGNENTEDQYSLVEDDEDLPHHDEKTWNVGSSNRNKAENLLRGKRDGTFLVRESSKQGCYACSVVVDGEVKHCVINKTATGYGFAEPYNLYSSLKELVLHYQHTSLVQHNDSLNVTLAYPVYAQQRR

Structure (SMILES)	IC50 (Akt-pS473 in U87MG cells) [nM]	PI3Ka IC50 (PI3Kα (p110α/p85α)) [nM]	IC50 [1] [nM]	IC50 (U87MG tumour cells) [nM]
CCN1CC(C)(C)Oc2nc(N3CCOC[C@@H]3C)nc(-c3ccc(NC(=O)Nc4ccc(OC)cn4)cc3)c2C1=O [Example 173, 1-{4-[6-Ethyl-8,8-dimethyl-2-((S)-3-methylmorpholin-4-yl)-5-oxo-5,6,7,8-tetrahydro-9-oxa-1,3,6-triazabenzocyclohepten-4-yl]phenyl}-3-(5-methoxypyridin-2-yl)urea]	42	1602	12	242
CCN1CC(C)(C)Oc2nc(N3CC4CCC(C3)O4)nc(-c3ccc(NC(=O)OCCO)cc3F)c2C1=O [Example 246, {4-[6-Ethyl-8,8-dimethyl-2-(8-oxa-3-azabicyclo[3.2.1]oct-3-yl)-5-oxo-5,6,7,8-tetrahydro-9-oxa-1,3,6-triazabenzocyclohepten-4-yl]-3-fluorophenyl}carbamic acid 2-hydroxyethyl ester]	240	>10000	82	1600
CCN1CC(C)(C)Oc2nc(N3CCOC[C@@H]3C)nc(-c3ccc(NC(=O)OCC(C)(C)O)cc3)c2C1=O [Example 214, {4-[6-Ethyl-8,8-dimethyl-2-((S)-3-methylmorpholin-4-yl)-5-oxo-5,6,7,8-tetrahydro-9-oxa-1,3,6-triazabenzocyclohepten-4-yl]phenyl}carbamic acid 2-hydroxy-2-methylpropyl ester]	> 1000	>10000	2450	> 10000
CCNC(=O)Nc1ccc(-c2nc(N3C4CCC3COC4)nc3c2C(=O)N(CC)CC(C)(C)O3)cc1F [Example 255, 1-Ethyl-3-{4-[6-ethyl-8,8-dimethyl-2-(3-oxa-8-azabicyclo[3.2.1]oct-8-yl)-5-oxo-5,6,7,8-tetrahydro-9-oxa-1,3,6-triazabenzocyclohepten-4-yl]-2-fluorophenyl}urea]	68	>10000	72	210
CCN1CC(C)(C)Oc2nc(N3CC4CCC(C3)O4)nc(-c3ccc(NC(=O)Nc4ccc(N5CCN(C)CC5)cc4)c(F)c3)c2C1=O [Example 13, 1-{4-[6-ethyl-8,8-dimethyl-2-(8-oxa-3-azabicyclo[3.2.1]oct-3-yl)-5-oxo-5,6,7,8-tetrahydro-9-oxa-1,3,6-triazabenzocyclohepten-4-yl]-2-fluorophenyl}-3-[4-(4-methylpiperazin-1-yl)phenyl]urea]	13	6470	132	32
CCNC(=O)Nc1ccc(-c2nc(N3CC4CCC(C3)O4)nc3c2C(=O)N(C[C@@H]2CCCN2)CC(C)(C)O3)cc1F [Example 4, 1-{4-[8,8-Dimethyl-2-(8-oxa-3-azabicyclo[3.2.1]oct-3-yl)-5-oxo-6-(S)-1-pyrrolidin-2-ylmethyl-5,6,7,8-tetrahydro-9-oxa-1,3,6-triazabenzocyclohepten-4-yl]-2-fluorophenyl}-3-ethylurea]	> 3000	>10000	721	> 10000
CCN1CC(C)(C)Oc2nc(N3CCOC[C@@H]3C)nc(-c3ccc(NC(=O)OCCO)c(F)c3)c2C1=O [Example 209, {4-[6-Ethyl-8,8-dimethyl-2-((S)-3-methylmorpholin-4-yl)-5-oxo-5,6,7,8-tetrahydro-9-oxa-1,3,6-triazabenzocyclohepten-4-yl]-2-fluorophenyl}carbamic acid 2-hydroxyethyl ester]	69	>10000	155	1050
CN1CC(C)(C)Oc2nc(N3C4CCC3COC4)nc(-c3ccc(NC(=O)Nc4ccncc4)cc3)c2C1=O [Example 68, 1-Pyridin-4-yl-3-{4-[6,8,8-trimethyl-2-(3-oxa-8-azabicyclo[3.2.1]oct-8-yl)-5-oxo-5,6,7,8-tetrahydro-9-oxa-1,3,6-triazabenzocyclohepten-4-yl]phenyl}urea]	16	1360	12	82
CCN1CC(C)(C)Oc2nc(N3CC4CCC(C3)O4)nc(-c3ccc(NC(=O)Nc4ccc(N5CCN(C(=O)OC)CC5)cc4)c(F)c3)c2C1=O [Example 236, 4-[4-(3-{4-[6-Ethyl-8,8-dimethyl-2-(8-oxa-3-azabicyclo[3.2.1]oct-3-yl)-5-oxo-5,6,7,8-tetrahydro-9-oxa-1,3,6-triazabenzocyclohepten-4-yl]-2-fluorophenyl}ureido)phenyl]piperazine-1-carboxylic acid methyl ester]	20	>7200	112	29
CCN1CC(C)(C)Oc2nc(N3CC4CCC(C3)O4)nc(-c3ccc(NC(=O)Nc4ccc(F)c(OC)c4)c(F)c3)c2C1=O [Example 138, 1-{4-[6-Ethyl-8,8-dimethyl-2-(8-oxa-3-azabicyclo[3.2.1]oct-3-yl)-5-oxo-5,6,7,8-tetrahydro-9-oxa-1,3,6-triazabenzocyclohepten-4-yl]-2-fluorophenyl}-3-(4-fluoro-3-methoxyphenyl)urea]	105	>10000	299	331
CCN1CC(C)(C)Oc2nc(N3CC4CCC(C3)O4)nc(-c3ccc(NC(=O)Nc4ccc(C#N)nc4)c(F)c3)c2C1=O [Example 247, 1-(6-Cyanopyridin-3-yl)-3-{4-[6-ethyl-8,8-dimethyl-2-(8-oxa-3-azabicyclo[3.2.1]oct-3-yl)-5-oxo-5,6,7,8-tetrahydro-9-oxa-1,3,6-triazabenzocyclohepten-4-yl]-2-fluorophenyl}urea]	8	7200	26	62
CCN1CC(C)(C)Oc2nc(N3CC4CCC(C3)O4)nc(-c3ccc(NC(=O)Nc4ccncc4)cc3F)c2C1=O [Example 71, 1-{4-[6-Ethyl-8,8-dimethyl-2-(8-oxa-3-azabicyclo[3.2.1]oct-3-yl)-5-oxo-5,6,7,8-tetrahydro-9-oxa-1,3,6-triazabenzocyclohepten-4-yl]-3-fluorophenyl}-3-pyridin-4-ylurea]	59	>10000	21	209
CCN1CC(C)(C)Oc2nc(N3CCOC[C@@H]3C)nc(-c3ccc(NC(=O)Nc4ccc(C)nc4)c(F)c3)c2C1=O [Example 161, 1-{4-[6-Ethyl-8,8-dimethyl-2-((S)-3-methylmorpholin-4-yl)-5-oxo-5,6,7,8-tetrahydro-9-oxa-1,3,6-triazabenzocyclohepten-4-yl]-2-fluorophenyl}-3-(6-methylpyridin-3-yl)urea]	9	321	38	60
COCCN1CC(C)(C)Oc2nc(N3CC4CCC(C3)O4)nc(-c3ccc(NC(=O)Nc4ccc(F)cc4F)cc3)c2C1=O [Example 162, 1-(2,4-Difluorophenyl)-3-{4-[6-(2-methoxyethyl)-8,8-dimethyl-2-(8-oxa-3-azabicyclo[3.2.1]oct-3-yl)-5-oxo-5,6,7,8-tetrahydro-9-oxa-1,3,6-triazabenzocyclohepten-4-yl]phenyl}urea]	110	>10000	147	486
CCN1CC(C)(C)Oc2nc(N3CC4CCC(C3)O4)nc(-c3ccc(NC(=O)Nc4ccc(N5CCN(C)CC5)nc4)c(F)c3)c2C1=O [Example 195, 1-{4-[6-Ethyl-8,8-dimethyl-2-(8-oxa-3-azabicyclo[3.2.1]oct-3-yl)-5-oxo-5,6,7,8-tetrahydro-9-oxa-1,3,6-triazabenzocyclohepten-4-yl]-2-fluorophenyl}-3-[6-(4-methylpiperazin-1-yl)pyridin-3-yl]urea]	45	6800	61	57
CCN1CC(C)(C)Oc2nc(N3CC4CCC(C3)O4)nc(-c3ccc(NC(=O)Nc4ccc(C(F)(F)F)nc4)c(F)c3)c2C1=O [Example 230, 1-{4-[6-Ethyl-8,8-dimethyl-2-(8-oxa-3-azabicyclo[3.2.1]oct-3-yl)-5-oxo-5,6,7,8-tetrahydro-9-oxa-1,3,6-triazabenzocyclohepten-4-yl]-2-fluorophenyl}-3-(6-trifluoromethylpyridin-3-yl)urea]	18	>10000	77	58
CCNC(=O)Nc1ccc(-c2nc(N3CC4CCC(C3)O4)nc3c2C(=O)N(CC)CC(C)(C)O3)cc1F [Example 110, 1-Ethyl-3-{4-[6-ethyl-8,8-dimethyl-2-(8-oxa-3-azabicyclo[3.2.1]oct-3-yl)-5-oxo-5,6,7,8-tetrahydro-9-oxa-1,3,6-triazabenzocyclohepten-4-yl]-2-fluorophenyl}urea]	89	>10000	45	506
CCN1CC(C)(C)Oc2nc(N3CCOC[C@@H]3C)nc(-c3ccc(NC(=O)Nc4ccncc4)cc3F)c2C1=O [Example 12, 1-{4-[6-ethyl-8,8-dimethyl-2-((S)-3-methylmorpholin-4-yl)-5-oxo-5,6,7,8-tetrahydro-9-oxa-1,3,6-triazabenzocyclohepten-4-yl]-3-fluorophenyl}-3-pyridin-4-ylurea]	43	640	17	121
